Reference: US8497245B2, “Trypsin-like serine protease inhibitors, their preparation and use as selective inhibitors of the clotting factors IIa and Xa” (The Medicines Company (Leipzig) GmbH, priority 2010, dated 2013)

Target: T1, Subcomponent "s" of Human Complement Component 1 (h C1s) (Homo sapiens, UniProt P09871)
T1 construct: purchased Calbiochem
T1 sequence (P09871 438-688 limits assumed): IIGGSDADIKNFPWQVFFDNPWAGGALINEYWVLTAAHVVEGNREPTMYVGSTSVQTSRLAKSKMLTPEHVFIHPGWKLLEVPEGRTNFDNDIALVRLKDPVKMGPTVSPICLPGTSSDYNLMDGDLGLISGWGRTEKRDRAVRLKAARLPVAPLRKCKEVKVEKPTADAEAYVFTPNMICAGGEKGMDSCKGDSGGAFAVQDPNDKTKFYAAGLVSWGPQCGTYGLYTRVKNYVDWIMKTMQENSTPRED
T1 sequence (P09871 16-437 partner limits assumed): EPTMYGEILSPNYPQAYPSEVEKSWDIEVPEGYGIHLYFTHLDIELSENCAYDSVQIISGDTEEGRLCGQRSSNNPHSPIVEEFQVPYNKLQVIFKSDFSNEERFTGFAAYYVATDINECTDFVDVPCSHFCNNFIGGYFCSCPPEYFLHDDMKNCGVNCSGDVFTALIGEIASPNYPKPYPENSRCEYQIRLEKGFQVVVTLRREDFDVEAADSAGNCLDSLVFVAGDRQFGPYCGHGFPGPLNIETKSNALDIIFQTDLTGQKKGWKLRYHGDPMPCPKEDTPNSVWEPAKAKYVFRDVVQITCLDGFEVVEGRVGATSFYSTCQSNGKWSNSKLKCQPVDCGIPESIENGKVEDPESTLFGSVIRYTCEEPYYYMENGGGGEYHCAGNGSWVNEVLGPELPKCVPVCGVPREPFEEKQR
Test: Inhibition of human C1s (reference enzyme)
Format: biochemical
Conditions: S-2314 substrate; read-out: Ki h Cls
Experimental: (§1) The inhibitory effect against the individual purified enzymes was determined in analogy to a previously disclosed method (Stürzebecher et al., J. Med. Chem., 40, 3091-3099 (1997)).
(§2) The release of p-nitroaniline (p-NA, the chromogenic product of the proteolytic activity), was determined by change in absorbance at 405 nm. The equilibrium rates were used to calculate the inhibitor/enzyme dissociation constant (Ki values) by parameter fitting in accordance with the rate equation for competitive inhibition using GraFit (version 4 from Erithacus). The results are reported as Ki values (nanomolar) in table 7 and are the average of at least three determinations.
(§3) Dissociation constants were calculated as described herein.

Row | Ki [µM] | SMILES
1 | > 100 | NCc1ccc(Cl)cc1CNC(=O)[C@@H]1CCN1C(=O)[C@@H](CC(=O)N1CCOCC1)NS(=O)(=O)Cc1ccccc1 [Compound 2.44]
2 | > 100 | CN(C(=O)CC[C@@H](NS(=O)(=O)Cc1ccccc1)C(=O)N1CCC[C@H]1C(=O)NCc1cc(Cl)ccc1CN)C1CCNCC1 [Compound 2.27]

Target: T2, Human plasmin (h plasmin) (Homo sapiens, UniProt P00747)
T2 construct: purchased Calbiochem
Test: Inhibition of human plasmin (reference enzyme)
Format: biochemical
Conditions: Chromozym PL substrate
Experimental: as §1, §2, §3

T2 sequence (P00747 581-810 limits assumed): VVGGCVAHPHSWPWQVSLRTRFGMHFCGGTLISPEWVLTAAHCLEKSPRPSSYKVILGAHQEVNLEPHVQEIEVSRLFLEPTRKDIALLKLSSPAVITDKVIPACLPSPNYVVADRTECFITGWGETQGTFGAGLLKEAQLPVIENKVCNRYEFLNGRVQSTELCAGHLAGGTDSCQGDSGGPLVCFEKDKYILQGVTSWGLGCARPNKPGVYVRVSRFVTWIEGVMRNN
T2 sequence (P00747 97-580 partner limits assumed): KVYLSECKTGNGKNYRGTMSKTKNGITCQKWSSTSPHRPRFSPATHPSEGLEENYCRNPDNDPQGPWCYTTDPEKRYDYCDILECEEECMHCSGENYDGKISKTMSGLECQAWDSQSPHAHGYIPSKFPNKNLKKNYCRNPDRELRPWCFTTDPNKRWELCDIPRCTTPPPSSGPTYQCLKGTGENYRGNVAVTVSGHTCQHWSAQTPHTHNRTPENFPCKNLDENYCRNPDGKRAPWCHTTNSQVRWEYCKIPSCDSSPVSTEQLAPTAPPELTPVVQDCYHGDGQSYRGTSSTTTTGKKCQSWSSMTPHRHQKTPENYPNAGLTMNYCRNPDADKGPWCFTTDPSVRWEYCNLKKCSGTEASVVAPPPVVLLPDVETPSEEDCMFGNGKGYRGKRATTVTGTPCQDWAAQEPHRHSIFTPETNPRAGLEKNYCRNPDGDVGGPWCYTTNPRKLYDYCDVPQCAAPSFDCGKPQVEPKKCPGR

Row | Ki [µM] | SMILES
3 | > 10 | NCc1ccc(Cl)cc1CNC(=O)[C@@H]1CCN1C(=O)[C@@H](CC(=O)N1CCOCC1)NS(=O)(=O)Cc1ccccc1 [Compound 2.44]
4 | > 10 | CN(C(=O)CC[C@@H](NS(=O)(=O)Cc1ccccc1)C(=O)N1CCC[C@H]1C(=O)NCc1cc(Cl)ccc1CN)C1CCNCC1 [Compound 2.27]

Target: T3, Human urokinase type plasminogen activator (h u-PA) (Homo sapiens, UniProt P00749)
T3 construct: purchased MEDAC GmbH Urokinase HS medac
Test: Inhibition of human urokinase type plasminogen activator (reference enzyme)
Format: biochemical
Conditions: H-Glu-Gly-Arg-pNA substrate
Experimental: as §1, §2, §3

Row | Ki [µM] | SMILES
5 | > 50 | NCc1ccc(Cl)cc1CNC(=O)[C@@H]1CCN1C(=O)[C@@H](CC(=O)N1CCOCC1)NS(=O)(=O)Cc1ccccc1 [Compound 2.44]
6 | > 100 | CN(C(=O)CC[C@@H](NS(=O)(=O)Cc1ccccc1)C(=O)N1CCC[C@H]1C(=O)NCc1cc(Cl)ccc1CN)C1CCNCC1 [Compound 2.27]

Target: T4, Human tissue-type plasminogen activator (h t-PA) (Homo sapiens, UniProt P00750)
T4 construct: purchased Boehringer Ingelheim Actilyse
Test: Inhibition of human tissue-type plasminogen activator (reference enzyme)
Format: biochemical
Conditions: Pefachrome tPA substrate; read-out: Ki h t-PA
Experimental: The equilibrium rates were used to calculate the inhibitor/enzyme dissociation constant (Ki values) by parameter fitting in accordance with the rate equation for competitive inhibition using GraFit (version 4 from Erithacus).
as §3

T4 sequence (P00750 36-562): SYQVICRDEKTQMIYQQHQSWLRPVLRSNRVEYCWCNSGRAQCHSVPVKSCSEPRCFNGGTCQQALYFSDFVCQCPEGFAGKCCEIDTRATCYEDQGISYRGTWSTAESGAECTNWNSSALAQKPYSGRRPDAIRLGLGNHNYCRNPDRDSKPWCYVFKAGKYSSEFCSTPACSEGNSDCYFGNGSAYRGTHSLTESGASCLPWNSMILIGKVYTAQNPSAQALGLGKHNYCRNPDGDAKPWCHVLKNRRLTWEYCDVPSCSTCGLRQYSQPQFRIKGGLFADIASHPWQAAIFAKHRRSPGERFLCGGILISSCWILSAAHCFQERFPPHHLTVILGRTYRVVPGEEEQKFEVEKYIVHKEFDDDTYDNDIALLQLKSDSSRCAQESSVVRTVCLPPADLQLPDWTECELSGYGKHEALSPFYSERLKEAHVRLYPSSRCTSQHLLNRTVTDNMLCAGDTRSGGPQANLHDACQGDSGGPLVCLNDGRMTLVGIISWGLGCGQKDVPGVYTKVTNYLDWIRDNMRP

Row | Ki [µM] | SMILES
7 | > 35 | NCc1ccc(Cl)cc1CNC(=O)[C@@H]1CCN1C(=O)[C@@H](CC(=O)N1CCOCC1)NS(=O)(=O)Cc1ccccc1 [Compound 2.44]
8 | > 100 | CN(C(=O)CC[C@@H](NS(=O)(=O)Cc1ccccc1)C(=O)N1CCC[C@H]1C(=O)NCc1cc(Cl)ccc1CN)C1CCNCC1 [Compound 2.27]

Target: T5, Subcomponent "r" of Human Complement Component 1 (h C1r) (Homo sapiens, UniProt P00736)
T5 construct: purchased Calbiochem
T5 sequence (P00736 464-705 limits assumed): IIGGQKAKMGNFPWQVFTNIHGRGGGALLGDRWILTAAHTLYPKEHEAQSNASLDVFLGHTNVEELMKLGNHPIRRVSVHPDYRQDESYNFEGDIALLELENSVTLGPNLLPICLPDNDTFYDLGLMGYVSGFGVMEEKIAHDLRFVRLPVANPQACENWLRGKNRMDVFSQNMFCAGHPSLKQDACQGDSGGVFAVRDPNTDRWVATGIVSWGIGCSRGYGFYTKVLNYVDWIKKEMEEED
T5 sequence (P00736 18-463 partner limits assumed): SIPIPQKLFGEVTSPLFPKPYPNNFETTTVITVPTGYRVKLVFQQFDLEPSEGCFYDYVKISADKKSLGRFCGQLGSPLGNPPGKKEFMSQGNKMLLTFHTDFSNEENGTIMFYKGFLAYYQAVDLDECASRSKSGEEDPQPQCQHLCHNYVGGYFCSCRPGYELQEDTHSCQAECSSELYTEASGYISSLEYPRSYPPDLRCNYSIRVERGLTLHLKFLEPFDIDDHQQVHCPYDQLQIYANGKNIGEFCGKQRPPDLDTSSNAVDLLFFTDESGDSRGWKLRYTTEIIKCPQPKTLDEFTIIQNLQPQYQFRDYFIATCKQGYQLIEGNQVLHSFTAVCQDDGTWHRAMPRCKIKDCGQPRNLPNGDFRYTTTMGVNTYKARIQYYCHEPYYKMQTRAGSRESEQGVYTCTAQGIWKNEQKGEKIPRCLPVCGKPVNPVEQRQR
Test: Inhibition of human C1r (reference enzyme)
Format: biochemical
Conditions: S-2314 substrate; read-out: Ki h Clr
Experimental: as §1, §2, §3

Row | Ki [µM] | SMILES
9 | > 100 | NCc1ccc(Cl)cc1CNC(=O)[C@@H]1CCN1C(=O)[C@@H](CC(=O)N1CCOCC1)NS(=O)(=O)Cc1ccccc1 [Compound 2.44]
10 | > 100 | CN(C(=O)CC[C@@H](NS(=O)(=O)Cc1ccccc1)C(=O)N1CCC[C@H]1C(=O)NCc1cc(Cl)ccc1CN)C1CCNCC1 [Compound 2.27]

Target: T6, human factor IIa (human alpha-thrombin) (Homo sapiens, UniProt P00734)
T6 construct: human alpha-thrombin from Enzyme Research Laboratories; purchased Enzyme Research Laboratories
Test: Inhibition constants for human factor IIa, chromogenic substrate assay
Format: biochemical
Conditions: 25° C., Pefachrome tPA substrate, average of at least three determinations; read-out: Ki h FIIa
Experimental: as §1
(§4) 200 μL of TBS (0.05 M trishydroxymethylaminomethane; 0.154 M NaCl, 2% ethanol, pH 8.0)
as §2

Row | Ki [nM] | SMILES
11 | 4 | NCc1ccc(Cl)cc1CNC(=O)[C@@H]1CCN1C(=O)[C@@H](CC(=O)N1CCOCC1)NS(=O)(=O)Cc1ccccc1 [Compound 2.44]
12 | 0.8 | CN(C(=O)CC[C@@H](NS(=O)(=O)Cc1ccccc1)C(=O)N1CCC[C@H]1C(=O)NCc1cc(Cl)ccc1CN)C1CCNCC1 [Compound 2.27]

Target: T7, Human Activated Protein C (h aPC) (Homo sapiens, UniProt P04070)
T7 construct: purchased Enzyme Research Laboratories
Test: Inhibition of human activated protein C (reference enzyme)
Format: biochemical
Conditions: Pefachrome PCa substrate
Experimental: as §1, §2, §3

T7 sequence (P04070 212-450 limits assumed): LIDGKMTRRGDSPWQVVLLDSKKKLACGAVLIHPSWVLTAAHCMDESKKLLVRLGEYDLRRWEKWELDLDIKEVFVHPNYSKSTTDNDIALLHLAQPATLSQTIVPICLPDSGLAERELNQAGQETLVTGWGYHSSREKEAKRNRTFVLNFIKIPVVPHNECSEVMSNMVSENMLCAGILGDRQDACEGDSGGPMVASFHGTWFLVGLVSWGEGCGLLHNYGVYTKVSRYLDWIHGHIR
T7 sequence (P04070 43-197 partner limits assumed): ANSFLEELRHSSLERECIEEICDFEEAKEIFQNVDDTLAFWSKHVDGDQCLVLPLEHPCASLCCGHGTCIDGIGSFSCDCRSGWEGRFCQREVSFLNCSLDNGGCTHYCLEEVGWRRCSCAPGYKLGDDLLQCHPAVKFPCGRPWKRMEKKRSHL

Row | Ki [µM] | SMILES
13 | > 100 | NCc1ccc(Cl)cc1CNC(=O)[C@@H]1CCN1C(=O)[C@@H](CC(=O)N1CCOCC1)NS(=O)(=O)Cc1ccccc1 [Compound 2.44]
14 | > 50 | CN(C(=O)CC[C@@H](NS(=O)(=O)Cc1ccccc1)C(=O)N1CCC[C@H]1C(=O)NCc1cc(Cl)ccc1CN)C1CCNCC1 [Compound 2.27]

Target: T8, Human plasma kallikrein (h PK) (Homo sapiens, UniProt P03952)
T8 construct: purchased Enzyme Research Laboratories
Test: Inhibition of human plasma kallikrein (reference enzyme)
Format: biochemical
Conditions: S2302 substrate
Experimental: as §1, §2, §3

T8 sequence (P03952 391-638 limits assumed): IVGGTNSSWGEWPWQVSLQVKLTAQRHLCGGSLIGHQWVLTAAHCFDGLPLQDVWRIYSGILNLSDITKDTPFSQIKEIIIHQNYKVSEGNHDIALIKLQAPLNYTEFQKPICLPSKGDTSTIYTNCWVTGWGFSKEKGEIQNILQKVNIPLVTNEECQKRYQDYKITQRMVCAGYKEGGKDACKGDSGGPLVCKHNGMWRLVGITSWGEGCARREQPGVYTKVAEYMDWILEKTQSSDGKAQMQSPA
T8 sequence (P03952 20-390 partner limits assumed): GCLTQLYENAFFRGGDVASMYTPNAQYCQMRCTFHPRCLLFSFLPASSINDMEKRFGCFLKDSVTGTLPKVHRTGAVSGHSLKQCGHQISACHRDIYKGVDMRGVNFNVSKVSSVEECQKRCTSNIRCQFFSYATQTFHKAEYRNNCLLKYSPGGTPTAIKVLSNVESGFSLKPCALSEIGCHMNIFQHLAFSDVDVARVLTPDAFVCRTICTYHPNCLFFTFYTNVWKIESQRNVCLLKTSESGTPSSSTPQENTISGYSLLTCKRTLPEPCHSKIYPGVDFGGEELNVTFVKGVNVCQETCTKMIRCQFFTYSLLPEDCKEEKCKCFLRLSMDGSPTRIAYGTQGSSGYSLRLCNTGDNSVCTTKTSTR

Row | Ki [nM] | SMILES
15 | 1830 | NCc1ccc(Cl)cc1CNC(=O)[C@@H]1CCN1C(=O)[C@@H](CC(=O)N1CCOCC1)NS(=O)(=O)Cc1ccccc1 [Compound 2.44]
16 | 1650 | CN(C(=O)CC[C@@H](NS(=O)(=O)Cc1ccccc1)C(=O)N1CCC[C@H]1C(=O)NCc1cc(Cl)ccc1CN)C1CCNCC1 [Compound 2.27]

Target: T9, Human urinary kallikrein (h uKK) (Homo sapiens, UniProt P06870)
T9 construct: purchased Lee Biosolutions
Test: Inhibition of human urinary kallikrein (reference enzyme)
Format: biochemical
Conditions: S-2266 substrate
Experimental: as §1, §2, §3

T9 sequence (P06870 25-262): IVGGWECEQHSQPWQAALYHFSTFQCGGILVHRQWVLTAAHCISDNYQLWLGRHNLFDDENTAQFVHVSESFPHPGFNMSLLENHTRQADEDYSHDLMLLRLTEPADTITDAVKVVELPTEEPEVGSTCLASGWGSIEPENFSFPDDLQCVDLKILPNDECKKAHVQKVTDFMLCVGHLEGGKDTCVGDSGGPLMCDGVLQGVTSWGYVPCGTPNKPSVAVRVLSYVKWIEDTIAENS

Row | Ki [µM] | SMILES
17 | > 20 | NCc1ccc(Cl)cc1CNC(=O)[C@@H]1CCN1C(=O)[C@@H](CC(=O)N1CCOCC1)NS(=O)(=O)Cc1ccccc1 [Compound 2.44]
18 | > 100 | CN(C(=O)CC[C@@H](NS(=O)(=O)Cc1ccccc1)C(=O)N1CCC[C@H]1C(=O)NCc1cc(Cl)ccc1CN)C1CCNCC1 [Compound 2.27]

Target: T10, human Factor Xa (Homo sapiens, UniProt P00742)
T10 construct: human Factor Xa from Enzyme Research Laboratories; purchased Enzyme Research Laboratories
Test: Inhibition constants for human factor Xa, chromogenic substrate assay
Format: biochemical
Conditions: 25° C., Pefachrome FXa substrate, average of at least three determinations; read-out: Ki h FXa
Experimental: as §1, §4, §2

T10 sequence (P00742 235-488 limits assumed): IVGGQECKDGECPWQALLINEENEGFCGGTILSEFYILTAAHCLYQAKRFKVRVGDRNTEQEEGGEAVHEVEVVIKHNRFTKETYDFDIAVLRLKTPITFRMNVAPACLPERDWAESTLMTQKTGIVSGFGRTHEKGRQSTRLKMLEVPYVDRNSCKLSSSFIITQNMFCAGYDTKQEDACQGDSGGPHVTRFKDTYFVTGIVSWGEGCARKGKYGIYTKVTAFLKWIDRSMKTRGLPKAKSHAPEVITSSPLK
T10 sequence (P00742 41-179 partner limits assumed): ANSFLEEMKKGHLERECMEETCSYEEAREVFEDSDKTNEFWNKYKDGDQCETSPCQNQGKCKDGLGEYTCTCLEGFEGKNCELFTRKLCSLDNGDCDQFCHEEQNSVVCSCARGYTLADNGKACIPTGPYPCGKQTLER

Row | Ki [nM] | SMILES
19 | 0.87 | NCc1ccc(Cl)cc1CNC(=O)[C@@H]1CCN1C(=O)[C@@H](CC(=O)N1CCOCC1)NS(=O)(=O)Cc1ccccc1 [Compound 2.44]
20 | 18 | CN(C(=O)CC[C@@H](NS(=O)(=O)Cc1ccccc1)C(=O)N1CCC[C@H]1C(=O)NCc1cc(Cl)ccc1CN)C1CCNCC1 [Compound 2.27]
